Laboratory results published in the supplement of paper PMC10307832.

Assays:
Assay in all cases: relative viability (nuclei count vs DMSO), 5 days (fraction); higher = more cells survive
[1] = compound: Cc1ccc2nc(NCCN)c3ncc(C)n3c2c1 + Nc1ncn([C@H]2C[C@H](O)[C@@H](CO)O2)c(=O)n1 [Decitabine] (partner 2 µM)
Procedure, shortened: (§1)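 Lung cancer cell lines in 1536-well plates were dosed by pin tool the day after seeding, either with one drug alone or with a fixed anchor-drug dose plus five library-drug doses (not always all listed) in √10 steps. After 5 days, cells were fixed and their nuclei stained in one step (final 0.05% Triton X-100, 1% formaldehyde, 1 ug/ml Hoechst), then counted on 4× images. Relative viability is the nuclei count in treated wells divided by that in vehicle wells. Values are medians of duplicate plates.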

[2] = compound: Cc1ccc2nc(NCCN)c3ncc(C)n3c2c1 + CS(=O)(=O)N1CCN(Cc2cc3nc(-c4cccc5[nH]ncc45)nc(N4CCOCC4)c3s2)CC1 [Pictilisib] (partner 1 µM)
Procedure, shortened: as §1

Salubrinal + AZD7762 = compound: O=C(/C=C/c1ccccc1)NC(NC(=S)Nc1cccc2cccnc12)C(Cl)(Cl)Cl [Salubrinal] + NC(=O)Nc1cc(-c2cccc(F)c2)sc1C(=O)N[C@H]1CCCNC1 [AZD7762] (partner 0.2 µM)
Procedure, shortened: as §1

Salubrinal + Trametinib = compound: O=C(/C=C/c1ccccc1)NC(NC(=S)Nc1cccc2cccnc12)C(Cl)(Cl)Cl [Salubrinal] + CC(=O)Nc1cccc(-n2c(=O)n(C3CC3)c(=O)c3c(Nc4ccc(I)cc4F)n(C)c(=O)c(C)c32)c1 [Trametinib] (partner 0.02 µM)
Procedure, shortened: as §1

Cell Line | relative viability ([1]; first compound 0.04 µM) | relative viability ([1]; first compound 0.1265 µM) | relative viability ([1]; first compound 0.4 µM) | relative viability ([1]; first compound 1.265 µM) | relative viability ([1]; first compound 4 µM) | relative viability ([2]; first compound 0.04 µM) | relative viability ([2]; first compound 0.1265 µM) | relative viability ([2]; first compound 0.4 µM) | relative viability ([2]; first compound 1.265 µM) | relative viability ([2]; first compound 4 µM) | relative viability (Salubrinal + AZD7762; first compound 0.08 µM) | relative viability (Salubrinal + AZD7762; first compound 0.253 µM) | relative viability (Salubrinal + AZD7762; first compound 0.8 µM) | relative viability (Salubrinal + AZD7762; first compound 2.53 µM) | relative viability (Salubrinal + AZD7762; first compound 8 µM) | relative viability (Salubrinal + Trametinib; first compound 0.08 µM) | relative viability (Salubrinal + Trametinib; first compound 0.253 µM) | relative viability (Salubrinal + Trametinib; first compound 0.8 µM) | relative viability (Salubrinal + Trametinib; first compound 2.53 µM) | relative viability (Salubrinal + Trametinib; first compound 8 µM)
NCI-H2347 | 0.605 | 0.664 | 0.603 | 0.645 | 0.585 | 0.762 | 0.673 | 0.59 | 0.645 | 0.557 | 0.537 | 0.82 | 0.919 | 0.749 | 0.744 | 0.279 | 0.258 | 0.395 | 0.262 | 0.294
NCI-H2405 | 0.706 | 0.713 | 0.747 | 0.728 | 0.741 | 0.442 | 0.443 | 0.441 | 0.511 | 0.396 | 0.872 | 0.704 | 0.835 | 0.813 | 0.664 | 0.653 | 0.625 | 0.594 | 0.605 | 0.557
NCI-H3122 | 0.4 | 0.449 | 0.377 | 0.541 | 0.421 | 0.646 | 0.585 | 0.541 | 0.735 | 0.672 | 1.16 | 0.979 | 1.07 | 1.1 | 1.05 | 0.259 | 0.239 | 0.282 | 0.226 | 0.226
PC-3 [JPC-3] | 0.831 | 0.889 | 0.854 | 0.846 | 0.761 | 0.758 | 0.752 | 0.731 | 0.725 | 0.7 | 0.833 | 0.67 | 0.923 | 0.928 | 0.671 | 0.734 | 0.697 | 0.65 | 0.693 | 0.651
PC-14 | 0.227 | 0.237 | 0.247 | 0.179 | 0.148 | 0.753 | 0.736 | 0.757 | 0.481 | 0.583 | 0.485 | 0.422 | 0.418 | 0.365 | 0.367 | 0.695 | 0.753 | 0.736 | 0.588 | 0.629
RERF-LC-KJ | 0.63 | 0.709 | 0.684 | 0.765 | 0.616 | 0.511 | 0.433 | 0.44 | 0.542 | 0.501 | 1.05 | 0.917 | 1.1 | 0.999 | 0.885 | 0.872 | 0.867 | 0.938 | 0.795 | 0.81
